Reference: patent US8013153B2, “Substituted pyrimidine kinase inhibitors” (Janssen Pharmaceutica, N.V., priority 2006, dated 2011)
pIC50: −log10 of the molar value.

Columns and labels:
CDK1:Cyclin-B = molecular target: T1, CDK1:Cyclin-B (Homo sapiens, UniProt P06493); experiment: CDK1 Screening Assay; assay type: biochemical
T1 construct: purchased New England Biolabs, Beverly, Mass; 6020; host or cells: insect cells

HER2 cytoplasmic domain = molecular target: T2, HER2 cytoplasmic domain (Homo sapiens, UniProt P04626); experiment: HER2 Kinase Screening Assay; assay type: biochemical; details: > means no observed 50% inhibition at the indicated test concentration; ~ means approximately 50% inhibition at that concentration
T2 construct: polyhistidine (N)

RET cytoplasmic domain = molecular target: T3, RET cytoplasmic domain (Homo sapiens, UniProt P07949); experiment: RET Kinase Screening Assay; assay type: biochemical
T3 construct: the RET cytoplasmic domain consisting of the last 492 amino acids of the intracellular domain; histidine tag (N); made in house; host or cells: Hi5 insect cells
T3 sequence (P07949 658-1114 limits assumed): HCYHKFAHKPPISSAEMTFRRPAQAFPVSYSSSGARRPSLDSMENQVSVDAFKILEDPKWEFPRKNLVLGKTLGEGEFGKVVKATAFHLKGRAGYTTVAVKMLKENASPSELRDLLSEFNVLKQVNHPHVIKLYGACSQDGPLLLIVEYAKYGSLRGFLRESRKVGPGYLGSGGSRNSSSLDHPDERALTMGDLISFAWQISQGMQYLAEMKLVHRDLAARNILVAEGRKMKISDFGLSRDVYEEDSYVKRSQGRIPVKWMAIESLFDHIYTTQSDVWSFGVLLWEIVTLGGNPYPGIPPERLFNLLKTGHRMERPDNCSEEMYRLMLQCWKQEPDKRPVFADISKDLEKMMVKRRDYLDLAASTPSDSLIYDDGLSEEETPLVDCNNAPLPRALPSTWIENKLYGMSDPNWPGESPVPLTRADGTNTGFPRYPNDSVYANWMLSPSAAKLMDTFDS

HCT-116 colon carcinoma = experiment: Inhibition of in vitro cell proliferation (HCT116); assay type: cell-based, human; details: Homo sapiens, HCT-116, 14C-thymidine incorporation;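 further: cells exposed to compound for 24 h, then 14C-thymidine added for a further 24 h and its uptake into DNA counted by scintillation, DMSO-only wells as control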
murine Aurora-A = molecular target: T4, murine Aurora-A (Mus musculus, UniProt P97477); experiment: Aurora-A Screening Assay; assay type: biochemical
T4 construct: replaced with the full length protein encoding the murine Aurora-A; made in house; host or cells: sf9 insect cells
T4 sequence (P97477 1-395): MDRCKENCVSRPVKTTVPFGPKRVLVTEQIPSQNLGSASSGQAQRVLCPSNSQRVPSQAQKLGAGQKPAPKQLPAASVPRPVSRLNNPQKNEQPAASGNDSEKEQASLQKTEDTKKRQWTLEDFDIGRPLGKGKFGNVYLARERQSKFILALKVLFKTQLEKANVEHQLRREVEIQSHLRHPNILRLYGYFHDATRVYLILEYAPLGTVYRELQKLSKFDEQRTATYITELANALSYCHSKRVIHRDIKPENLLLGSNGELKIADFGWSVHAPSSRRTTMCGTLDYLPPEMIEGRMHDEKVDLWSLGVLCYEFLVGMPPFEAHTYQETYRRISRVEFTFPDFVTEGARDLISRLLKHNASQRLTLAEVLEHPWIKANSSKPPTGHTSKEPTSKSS

[1] = test system: HeLa cervical adenocarcinoma; experiment: Inhibition of in vitro cell proliferation (HeLa); assay type: cell-based, human; details: Homo sapiens, 14C-thymidine incorporation;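 further: cells exposed to compound for 24 h, then labelled 24 h with methyl 14C-thymidine, with uptake into DNA counted by scintillation against DMSO-only control wells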
A375 malignant melanoma = experiment: Inhibition of in vitro cell proliferation (A375); assay type: cell-based, human; details: Homo sapiens, A-375, 14C-thymidine incorporation;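 further: cells plated for 24 h, given compound for 24 h, then labelled with 14C-thymidine for another 24 h, with DMSO-only wells as control and counts read by scintillation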
[2] = molecular target: T5, rat VEGF-R2 kinase domain (Rattus norvegicus, UniProt O08775); experiment: VEGF-R2 Screening Assay; assay type: biochemical; details: > means no observed 50% inhibition at the indicated test concentration; ~ means approximately 50% inhibition at that concentration; read-out: IC50 VEGF-R2
T5 construct: amino acids 786-1343 of the rat VEGF-R2 kinase domain; polyhistidine (N)

[3] = test system: spontaneous intestinal adenoma formation; experiment: C57BL/6J-APC Min-mouse model of human adenomatous polyposis coli; assay type: in vivo, C57BL/6J-Apc min mice; details: 100 mg/kg orally q.d., versus vehicle-treated group
Method: The ability of Compound 50 to inhibit angiogenesis and tumor growth was tested in a spontaneous tumor model. the pre-cancerous polyp formation in the mouse model of human intestinal tumorigenesis.
Transgenic C57BL/6J-Apc min mice heterozygous for a dominant nonsense Apc mutation are highly susceptible to spontaneous intestinal adenoma formation (homozygous mice are not viable). One hundred percent of these animals will develop polyps by 12 weeks of age. This model is widely used for studying prevention of intestinal adenoma formation and is well described in the literature (Yang K, Edelmann W, Fan K, et. al. A mouse model of human familial adenomatous polyposis. J Exp Zool. 1997 15; 277(3):245-54).
Female C57BL/6J-Apc^Min mice (Jackson Laboratory, MN), 5 weeks of age, were housed (up to 10 mice per group) for a minimum of one week. Animals were then sorted into treatment groups based on body weight such that the mean body weight for the animals in each group was approximately the same. Small cohorts of animals (n=6) were sacrificed at day 1, before treatment to get a baseline number of polyps (mean polyp number at beginning of study). […]
Animals in the treated group (n=10) were dosed daily with Compound 50 at 100 mg/kg orally q.d. for one week. […] The intestine of each mouse was excised, perfused, stained (0.01% Trypan Blue) and polyps were counted under 10× magnification.

T1 sequence (P06493 whole entry): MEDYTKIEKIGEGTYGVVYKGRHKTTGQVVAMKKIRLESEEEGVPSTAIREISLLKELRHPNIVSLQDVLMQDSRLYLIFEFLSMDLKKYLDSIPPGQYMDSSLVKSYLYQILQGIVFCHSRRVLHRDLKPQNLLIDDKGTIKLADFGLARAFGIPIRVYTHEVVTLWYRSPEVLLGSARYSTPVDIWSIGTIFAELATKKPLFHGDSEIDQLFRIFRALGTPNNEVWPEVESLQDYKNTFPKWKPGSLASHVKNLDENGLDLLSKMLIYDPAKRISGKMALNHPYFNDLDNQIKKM
T1 sequence (P14635 whole entry partner): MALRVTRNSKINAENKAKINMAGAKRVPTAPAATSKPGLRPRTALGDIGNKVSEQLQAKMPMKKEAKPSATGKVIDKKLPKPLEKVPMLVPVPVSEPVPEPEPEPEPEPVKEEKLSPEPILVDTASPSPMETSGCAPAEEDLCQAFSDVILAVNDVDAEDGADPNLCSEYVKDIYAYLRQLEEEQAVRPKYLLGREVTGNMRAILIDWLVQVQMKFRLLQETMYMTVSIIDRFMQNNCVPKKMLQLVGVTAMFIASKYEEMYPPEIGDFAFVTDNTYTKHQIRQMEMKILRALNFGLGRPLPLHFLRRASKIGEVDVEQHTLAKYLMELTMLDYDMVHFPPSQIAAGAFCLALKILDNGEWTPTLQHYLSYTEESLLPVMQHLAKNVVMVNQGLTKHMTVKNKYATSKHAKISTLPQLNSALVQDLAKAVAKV
T2 sequence (P04626 676-1255 limits assumed): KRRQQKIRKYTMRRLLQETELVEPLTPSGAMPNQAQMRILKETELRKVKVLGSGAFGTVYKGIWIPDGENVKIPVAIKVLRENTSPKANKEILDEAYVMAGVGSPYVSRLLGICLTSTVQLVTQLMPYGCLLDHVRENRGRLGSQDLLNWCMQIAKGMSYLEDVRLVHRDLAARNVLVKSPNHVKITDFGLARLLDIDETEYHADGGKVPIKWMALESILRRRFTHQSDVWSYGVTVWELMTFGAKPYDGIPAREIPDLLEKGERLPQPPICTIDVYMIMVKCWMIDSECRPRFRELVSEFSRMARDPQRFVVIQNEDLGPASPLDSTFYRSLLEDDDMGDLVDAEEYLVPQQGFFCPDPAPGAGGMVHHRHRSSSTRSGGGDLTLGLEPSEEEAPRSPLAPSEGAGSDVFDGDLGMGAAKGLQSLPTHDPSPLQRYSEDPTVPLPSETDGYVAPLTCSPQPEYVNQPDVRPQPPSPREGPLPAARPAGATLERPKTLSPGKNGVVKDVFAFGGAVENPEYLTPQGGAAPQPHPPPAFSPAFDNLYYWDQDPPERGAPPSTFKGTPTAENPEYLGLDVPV
T5 sequence (O08775 786-1343): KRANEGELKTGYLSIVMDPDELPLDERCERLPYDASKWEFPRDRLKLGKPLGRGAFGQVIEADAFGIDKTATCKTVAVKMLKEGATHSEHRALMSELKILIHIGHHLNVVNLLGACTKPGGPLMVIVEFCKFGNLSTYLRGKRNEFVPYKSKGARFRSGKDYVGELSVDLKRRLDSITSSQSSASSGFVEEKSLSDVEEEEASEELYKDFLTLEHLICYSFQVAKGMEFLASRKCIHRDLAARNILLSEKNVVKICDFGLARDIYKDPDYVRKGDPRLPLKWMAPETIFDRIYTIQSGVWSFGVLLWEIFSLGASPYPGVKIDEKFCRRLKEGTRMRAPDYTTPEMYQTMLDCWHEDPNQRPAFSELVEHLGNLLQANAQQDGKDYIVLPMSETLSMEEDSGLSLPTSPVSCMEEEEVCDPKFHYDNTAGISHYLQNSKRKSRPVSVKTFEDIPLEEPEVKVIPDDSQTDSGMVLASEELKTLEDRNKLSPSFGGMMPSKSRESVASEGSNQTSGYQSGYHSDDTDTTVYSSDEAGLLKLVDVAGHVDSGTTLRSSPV

Row | pIC50 (CDK1:Cyclin-B) | pIC50 (HER2 cytoplasmic domain) | pIC50 (RET cytoplasmic domain) | IC50 (HCT-116 colon carcinoma) [µM] | pIC50 (murine Aurora-A) | IC50 [1] [µM] | IC50 (A375 malignant melanoma) [µM] | pIC50 [2] | Compound | body weights at study end [3]
1 | < 4.00 | < 4.00 | < 5.00 | > 10 | < 5.00 | > 10 | > 10 | 6.63 | CNC(=O)Nc1ccc(Oc2ncnc(N)c2C=NOC)cc1 [Cpd 68, 1-{4-[6-amino-5-(methoxyimino-methyl)-pyrimidin-4-yloxy]-phenyl}-3-methyl-urea] | –
2 | < 4.00 | 5.83 | 5.09 | 4.5 | < 5.00 | 4.18 | 2.61 | 7.19 | Cc1cc2c(F)c(Oc3ncnc(N)c3C=NOCCCN3CCCC3)ccc2[nH]1 [Cpd 18, 4-amino-6-(4-fluoro-2-methyl-1H-indol-5-yloxy)-pyrimidine-5-carbaldehyde O-(3-pyrrolidin-1-yl-propyl)-oxime] | –
3 | – | – | – | – | – | – | – | – | 1-{4-[6-amino-5-(methoxyimino-methyl)-pyrimidin-4-yloxy]-2-chloro-phenyl}-3-ethyl-urea [Cpd 50] | comparable
